Experiments:
Entamoeba histolytica = experiment: Antiamoebic activity against Entamoeba histolytica HM-1:IMSS trophozoites after 72 hrs by microdilution method; assay type: functional
[1] = Cytotoxicity against mouse Melan-a cells assessed as reduction in cell viability after 48 hrs by MTT assay; assay type: toxicity

IC50 (Entamoeba histolytica)	Structure (SMILES)	IC50 at 48 h [1]
260 nM	Cc1ncc([N+](=O)[O-])n1CCOC(=O)Nc1ccc(OCc2ccc(C#N)cc2)cc1	> 50 µM
150 nM	Cc1ncc([N+](=O)[O-])n1CCOC(=O)Nc1ccc(OCc2cccc(Cl)c2)cc1	> 50 µM
80 nM	Cc1ncc([N+](=O)[O-])n1CCOC(=O)Nc1ccc(OCc2ccc(F)cc2)cc1	> 50 µM
1780 nM	Cc1ncc([N+](=O)[O-])n1CCO [METRONIDAZOLE]	
240 nM	Cc1ncc([N+](=O)[O-])n1CCOC(=O)Nc1ccc(OCc2ccc(C(F)(F)F)cc2)cc1	> 50 µM
260 nM	Cc1ncc([N+](=O)[O-])n1CCOC(=O)Nc1ccc(OCc2ccc(F)c(F)c2)cc1	> 50 µM

Reference: ChEMBL document CHEMBL3860092, “Recent progress on the discovery of antiamoebic agents” (Bioorg Med Chem Lett, 2016)
